# Source: US20240300948A1, “Heterocyclic Compounds As Kinase Inhibitors” (Incyte Corporation, priority 2023, published 2024)
# Experiments:
# [1] = biological target: T1, pseudo-kinase domain (JH2, amino-acids 536-812 with 3 surface mutations W659A, W777A, F794H) of human Wild Type JAK2 (Homo sapiens, UniProt O60674, F794H/W659A/W777A); assay: JAK2 LanthaScreen JH2-WT binding assay; details: 50 nM tracer, 1 hour at 25° C., read-out: JH2 BIND WT IC50
# T1 construct: pseudo-kinase domain (JH2, amino-acids 536-812 with 3 surface mutations W659A, W777A, F794H); His (C); Avi (biotinylated) (C); purchased BPS Bioscience 79463; host or cells: baculovirus expression system
# Summary of the method: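 Compounds, serially diluted, were mixed with 0.145 nM JH2 domain, 50 nM tracer and 0.25 nM streptavidin-Tb cryptate, then incubated 1 hour at 25° C before LanthaScreen reading. Wells containing 2 mM ATP defined non-specific binding. Four-parameter dose-response curves gave IC50.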
# [2] = biological target: T2, pseudo-kinase domain (JH2, amino-acids 536-812 with 3 surface mutations W659A, W777A, F794H) of human V617F mutant JAK2 (Homo sapiens, UniProt O60674, F794H/V617F/W659A/W777A); assay: JAK2 LanthaScreen JH2-V617F binding assay; details: 50 nM tracer, 1 hour at 25° C., read-out: JH2 BIND V617F IC50
# T2 construct: pseudo-kinase domain (JH2, amino-acids 536-812 with 3 surface mutations W659A, W777A, F794H); His (C); Avi (biotinylated) (C); purchased BPS Bioscience 79498; host or cells: baculovirus expression system
# Summary of the method: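 Competition of compounds with a fluorescent tracer (50 nM) for the biotinylated domain (0.26 nM), detected via streptavidin-Tb (0.25 nM) after 1 h at 25° C in pH 7.5 Tris buffer containing glycerol, BSA and Brij-35. ATP at 2 mM gave background. IC50 by four-parameter fit.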
# [3] = biological target: T3, catalytic domain (JH1, amino acids 826-1132) of human JAK2 (Homo sapiens, UniProt O60674); assay: JAK2 LanthaScreen JH1 binding assay; details: 50 nM tracer, 2 hours at 25° C., read-out: JH1 BIND IC50
# T3 construct: catalytic domain (JH1, amino acids 826-1132) of human JAK2; FLAG (N); purchased Carna Biosciences 08-445-20N; host or cells: baculovirus expression system
# Summary of the method: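 Binding of compounds to biotinylated, FLAG-tagged human JAK2 JH1 (aa 826-1132; 1.5 nM) was measured by LanthaScreen TR-FRET with 50 nM fluorescent tracer and 0.5 nM streptavidin-Tb, in pH 7.5 Tris buffer. Non-specific binding was defined with 2 mM ATP. After 2 h at 25 °C, IC50 was fitted from four-parameter dose-response curves.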
# T2 sequence (O60674 536-812 V617F/W659A/W777A/F794H): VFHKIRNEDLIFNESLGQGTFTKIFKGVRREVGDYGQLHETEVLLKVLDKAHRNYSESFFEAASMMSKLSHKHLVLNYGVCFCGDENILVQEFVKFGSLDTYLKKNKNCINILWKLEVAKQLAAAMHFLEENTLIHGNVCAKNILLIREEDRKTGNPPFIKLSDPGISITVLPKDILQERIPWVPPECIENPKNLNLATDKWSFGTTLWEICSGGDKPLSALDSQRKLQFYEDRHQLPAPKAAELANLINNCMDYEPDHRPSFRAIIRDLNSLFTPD
# T3 sequence (O60674 826-1132): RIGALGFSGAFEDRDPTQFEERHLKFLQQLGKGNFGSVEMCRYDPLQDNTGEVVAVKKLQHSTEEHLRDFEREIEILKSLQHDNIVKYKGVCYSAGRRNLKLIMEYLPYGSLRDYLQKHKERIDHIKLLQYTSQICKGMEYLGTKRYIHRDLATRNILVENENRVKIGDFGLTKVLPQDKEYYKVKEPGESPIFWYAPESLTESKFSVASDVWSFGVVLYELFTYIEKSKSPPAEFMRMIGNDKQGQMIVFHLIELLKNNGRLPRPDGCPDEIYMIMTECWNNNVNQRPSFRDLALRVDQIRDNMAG
# T1 sequence (O60674 536-812 W659A/W777A/F794H): as the sequence (O60674 536-812 V617F/W659A/W777A/F794H) above, with F82V counted along it
SMILES,IC50 [1] [nM],IC50 [2] [nM],IC50 [3] [nM]
"COC(=O)N[C@@H]1CC[C@@H](N2C(=O)NCc3cnc4[nH]c(-c5cnn(C)c5)c(-c5ccc(OC)cc5)c4c32)C1 [Example 28, Methyl ((1R,3R)-3-(9-(4-methoxyphenyl)-8-(1-methyl-1H-pyrazol-4-yl)-2-oxo-2,3,4,7-tetrahydro-1H-pyrrolo[3′,2′:5,6]pyrido[4,3-d]pyrimidin-1-yl)cyclopentyl)carbamate]",10 to 100,10 to 100,> 1000
"COC(=O)N[C@@H]1CC[C@@H](n2c(=O)nc(N(C)C)c3cnc4[nH]c(-c5cnn(C)c5)c(-c5ccc6c(cnn6C(C)C)c5)c4c32)C1 [Example 43, Methyl ((1R,3R)-3-(4-(dimethylamino)-9-(1-isopropyl-1H-indazol-5-yl)-8-(1-methyl-1H-pyrazol-4-yl)-2-oxo-2,7-dihydro-1H-pyrrolo[3′,2′:5,6]pyrido[4,3-d]pyrimidin-1-yl)cyclopentyl)carbamate]",100 to 500,100 to 500,> 1000
"COC(=O)N[C@@H]1CC[C@@H](N2C(=O)NCc3cnc4[nH]c(-c5cnn(C)c5)c(-c5ccc6c(cnn6CCF)c5)c4c32)C1 [Example 25, Methyl ((1R,3R)-3-(9-(1-(2-fluoroethyl)-1H-indazol-5-yl)-8-(1-methyl-1H-pyrazol-4-yl)-2-oxo-2,3,4,7-tetrahydro-1H-pyrrolo[3′,2′:5,6]pyrido [4,3-d]pyrimidin-1-yl)cyclopentyl) carbamate]",≤ 10,10 to 100,100 to 500
"COC(=O)N[C@@H]1CC[C@@H](N2C(=O)NCc3cnc4[nH]c(-c5cnn(C)c5)c(-c5ccc6c(cnn6C6CCC6)c5)c4c32)C1 [Example 24, Methyl ((1R,3R)-3-(9-(1-cyclobutyl-1H-indazol-5-yl)-8-(1-methyl-1H-pyrazol-4-yl)-2-oxo-2,3,4,7-tetrahydro-1H-pyrrolo[3′,2′:5,6]pyrido[4,3-d]pyrimidin-1-yl)cyclopentyl) carbamate]",10 to 100,10 to 100,100 to 500
